Structures are written as SMILES. Structures can show the parent of a compound that is named as a salt.

This test concerns rabbits (New Zealand White). The experiment in a line: Ocular hypotensive effect in rabbits. The class given is in vivo, rabbit. Conditions: Oryctolagus cuniculus, topical, 0.04 mL dropped to one eye, vehicle to contralateral eye, test compound solution concentration 10 (W/V), read-out: Maximum ocular hypotensive rate. How it is done: The compound of the present invention was administered to rabbits (New Zealand White, sex: male, 3 to 7 per group) and evaluated for its ocular hypotensive effect.
Each test compound was dissolved in a vehicle (1.04 g of sodium dihydrogen phosphate dihydrate and 0.5 g of sodium chloride dissolved in purified water and then adjusted to pH 7.0 with sodium hydroxide to make the total amount to 100 mL) to prepare a test compound solution with a concentration of 10 (W/V).
The intraocular pressures of the rabbits were measured using Tiolat TonoVet handheld tonometer immediately before administration of test compound. The test compound solution and the vehicle were dropped at a volume of 0.04 mL to one eye and the contralateral eye, respectively, and the intraocular pressures were measured over time in the same way as above. The rate of the intraocular pressure of the eye receiving the test compound solution to that of the eye receiving the vehicle was calculated as an ocular hypotensive rate.
On to `C[C@@H]1CNCCCCN1S(=O)(=O)c1ccc2cnccc2c1[N+](=O)[O-]` [Example 39, (R)-6-(2-methyl-1,4-diazocan-1-ylsulfonyl)-5-nitroisoquinoline dihydrochloride], for which the inhibition in vivo at 10 % was not below 15%.

Consider `C[C@@H]1CNCCCN1S(=O)(=O)c1cc2ccncc2cc1F` [Example 25, (R)-6-(2-methyl-1,4-diazepan-1-ylsulfonyl)-7-fluoroisoquinoline dihydrochloride], for which the inhibition in vivo at 10 % was not below 15%.

Take `CC[C@@H]1CNCCCN1S(=O)(=O)c1ccc2cnccc2c1` [Example 19, (R)-6-(2-ethyl-1,4-diazepan-1-ylsulfonyl)isoquinoline dihydrochloride]: the inhibition in vivo at 10 % was not below 15%.

Consider `C[C@@H]1CN(C(=O)CN)CCCCN1S(=O)(=O)c1ccc2cnccc2c1` [Example 47, (R)-6-(4-glycyl-2-methyl-1,4-diazocan-1-ylsulfonyl)isoquinoline dihydrochloride], for which the inhibition in vivo at 10 % lay within 5 to 15%.

Regarding `NC1CCN(S(=O)(=O)c2ccc3cnccc3c2)CC1` [Example 4, 6-(4-aminopiperidin-1-ylsulfonyl)isoquinoline dihydrochloride], the inhibition in vivo at 10 % lay in the range of 5 to 15%.

Take `CN[C@H]1CCN(S(=O)(=O)c2ccc3cnccc3c2)C1` [Example 10, (S)-6-{3-(N-methylamino)pyrrolidin-1-ylsulfonyl}isoquinoline dihydrochloride]: the inhibition in vivo at 10 % fell in the range of 5 to 15%.

In the case of `O=S(=O)(c1ccc2cnccc2c1)N1CCOCC1` [Example 9, 6-(morpholin-1-ylsulfonyl)isoquinoline hydrochloride], the inhibition in vivo at 10 % is 5 to 15%.

Consider `C[C@H]1CCNC[C@H](C)N1S(=O)(=O)c1ccc2cnccc2c1` [Example 41, (2S,7S)-6-(2,7-dimethyl-1,4-diazepan-1-ylsulfonyl)isoquinoline dihydrochloride], for which the inhibition in vivo at 10 % is not below 15%.

For `C[C@@H]1CNC[C@@H](C)N1S(=O)(=O)c1ccc2cnccc2c1` [Example 40, (2R,6R)-6-(2,6-dimethylpiperazin-1-ylsulfonyl)isoquinoline dihydrochloride], the inhibition in vivo at 10 % is not below 15%.

`O=S(=O)(c1ccc2cnccc2c1)N1CCCNC[C@H]1CF` [Example 26, (S)-6-(2-fluoromethyl-1,4-diazepan-1-ylsulfonyl)isoquinoline dihydrochloride]: the inhibition in vivo at 10 % is not below 15%.

In the case of `C[C@@H]1CNCCNCCN1S(=O)(=O)c1ccc2cnccc2c1` [Example 44, (R)-6-(2-methyl-1,4,7-triazonan-1-ylsulfonyl)isoquinoline trihydrochloride], the inhibition in vivo at 10 % was not below 15%.

With `O=S(=O)(c1ccc2cnccc2c1)N1CCCCNCC1CF` (stereo in doubt) [Example 27, (R)-6-(2-fluoromethyl-1,4-diazocan-1-ylsulfonyl)isoquinoline dihydrochloride], the inhibition in vivo at 10 % is not below 15%.

As to `O=S(=O)(c1ccc2cnccc2c1)N1CCNCC1` [Example 1, 6-(piperazin-1-ylsulfonyl)isoquinoline dihydrochloride], the inhibition in vivo at 10 % was not below 15%.

Regarding `C[C@@H]1CCNCCCN1S(=O)(=O)c1ccc2cnccc2c1` [Example 38, (R)-6-(2-methyl-1,5-diazocan-1-ylsulfonyl)isoquinoline dihydrochloride], the inhibition in vivo at 10 % was not below 15%.

As to `C[C@@H]1CNCCCCCN1S(=O)(=O)c1ccc2cnccc2c1` [Example 33, (R)-6-(2-methyl-1,4-diazonan-1-ylsulfonyl)isoquinoline dihydrochloride], the inhibition in vivo at 10 % is not below 15%.

Take `CC1CCNCCN1S(=O)(=O)c1ccc2cnccc2c1` (stereo not shown) [Example 17, 6-(7-methyl-1,4-diazepan-1-ylsulfonyl)isoquinoline dihydrochloride]: the inhibition in vivo at 10 % is not below 15%.

For the compound `C[C@H]1CNCCN1S(=O)(=O)c1ccc2cnccc2c1` [Example 13, (S)-6-(2-methylpiperazin-1-ylsulfonyl)isoquinoline dihydrochloride], the inhibition in vivo at 10 % is not below 15%.

In the case of `C[C@@H]1CCCNCCN1S(=O)(=O)c1ccc2cnccc2c1` [Example 37, (R)-6-(8-methyl-1,4-diazocan-1-ylsulfonyl)isoquinoline dihydrochloride], the inhibition in vivo at 10 % is not below 15%.

Consider `NCC(=O)N1CCCN(S(=O)(=O)c2ccc3cnccc3c2)CC1` [Example 45, 6-(4-glycyl-1,4-diazepan-1-ylsulfonyl)isoquinoline dihydrochloride], for which the inhibition in vivo at 10 % lay within 5 to 15%.

With `O=S(=O)(c1ccc2cnccc2c1Br)N1CCCNCC1` [Example 5, 5-bromo-6-(1,4-diazepan-1-ylsulfonyl)isoquinoline dihydrochloride], the inhibition in vivo at 10 % is not below 15%.

For the compound `C[C@H]1CNCCCCN1S(=O)(=O)c1ccc2cnccc2c1` [Example 24, (S)-6-(2-methyl-1,4-diazocan-1-ylsulfonyl)isoquinoline dihydrochloride], the inhibition in vivo at 10 % was not below 15%.

With `CC1CN(S(=O)(=O)c2ccc3cnccc3c2)CCCN1` (stereo not shown) [Example 16, 6-(3-methyl-1,4-diazepan-1-ylsulfonyl)isoquinoline dihydrochloride], the inhibition in vivo at 10 % is not below 15%.

For the compound `C[C@@H]1CCNCCN(S(=O)(=O)c2ccc3cnccc3c2)C1` [Example 31, (R)-6-(7-methyl-1,4-diazocan-1-ylsulfonyl)isoquinoline dihydrochloride], the inhibition in vivo at 10 % is not below 15%.

In the case of `N[C@@H]1CCN(S(=O)(=O)c2ccc3cnccc3c2)C1` [Example 2, (R)-6-(3-aminopyrrolidin-1-ylsulfonyl)isoquinoline dihydrochloride], the inhibition in vivo at 10 % is not below 15%.

As for `C[C@H]1CNCCCN1S(=O)(=O)c1ccc2cnccc2c1` [Example 12, (S)-6-(2-methyl-1,4-diazepan-1-ylsulfonyl)isoquinoline dihydrochloride], the inhibition in vivo at 10 % is not below 15%.

`O=S(=O)(c1ccc2cnccc2c1)N1CCCCNCC1` [Example 21, 6-(1,4-diazocan-1-ylsulfonyl)isoquinoline dihydrochloride]: the inhibition in vivo at 10 % was not below 15%.

`CC[C@@H]1CNCCCCN1S(=O)(=O)c1ccc2cnccc2c1` [Example 20, (R)-6-(2-ethyl-1,4-diazocan-1-ylsulfonyl)isoquinoline dihydrochloride]: the inhibition in vivo at 10 % is not below 15%.

With `C[C@@H]1CCNC[C@H](C)N1S(=O)(=O)c1ccc2cnccc2c1` [Example 36, (2S,7R)-6-(2,7-dimethyl-1,4-diazepan-1-ylsulfonyl)isoquinoline dihydrochloride], the inhibition in vivo at 10 % was not below 15%.

For `O=S(=O)(c1ccc2cnccc2c1)N1C[C@@H]2C[C@H]1CN2` [Example 7, 6-{(1S,4S)-2,5-diazabicyclo[2.2.1]heptan-2-ylsulfonyl}isoquinoline dihydrochloride], the inhibition in vivo at 10 % is not below 15%.

Take `O=S(=O)(c1ccc2cnccc2c1)N1CCCNCC1` [Example 3, 6-(1,4-diazepan-1-ylsulfonyl)isoquinoline dihydrochloride]: the inhibition in vivo at 10 % was not below 15%.

For the compound `C[C@@H]1CNCCCCN1S(=O)(=O)c1ccc2cnccc2c1Br` [Example 23, (R)-5-bromo-6-(2-methyl-1,4-diazocan-1-ylsulfonyl)isoquinoline dihydrochloride], the inhibition in vivo at 10 % is not below 15%.

The values above are taken from US8951997B2, “Substituted isoquinoline derivative” (D. Western Therapeutics Institute, Inc., priority 2009, dated 2015).
